From patent US9745289B2, “Aldosterone synthase inhibitors” (Boehringer Ingelheim International GmbH, priority 2014, dated 2017) come the findings set out here.

For this assay, the target named is cortisol synthase (CYP11B1) (Macaca fascicularis, UniProt A0A2K5ULY1). Description: Inhibition of Cortisol Synthesis. The assay is classed as biochemical, cynomolgus monkey. The note with it: cynomolgus adrenal gland mitochondria; 150 units of CYP11B1, 11-deoxycortisol as substrate, cortisol measured as product. The procedure, abridged:
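Cynomolgus adrenal mitochondria as enzyme source (1 unit = 1 pmol product/h); 150 units CYP11B1 with 11-deoxycortisol substrate in 100 mM potassium phosphate pH 7.4, 1% DMSO, started with 1 mM NADPH, 90 min at 37 °C. Cortisol quantified by mass spectrometry; no-NADPH blank as 0%, no-compound as 100% activity.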

As a reminder, the IC50 is the concentration needed to halve the response being measured.

Compound `N#Cc1cccc2c1OCC(c1cncc(CNC(=O)C(F)(F)F)c1)O2` (stereo not shown) [Cpd 53, N-[5-(5-Cyano-2,3-dihydro-benzo[1,4]dioxin-2-yl)-pyridin-3-ylmethyl]-2,2,2-trifluoro-acetamide] registered a 50% inhibitory concentration (IC50) of 24 µM.
